Read-outs that look alike come from different tables or passages of the source.
Experiments:
Assay type in all cases: cell-based, human
Target C [1] = test: Splicing RT-qPCR panel, Target C canonical junction (CJ) mRNA; conditions: read-out: Target C IC50 (decrease in CJ mRNA levels)
Method: (§1) Compounds described herein were used to modulate RNA transcript abundance in cells. The expression of a target mRNA was measured by detecting the formation of an exon-exon junction in the canonical transcript (CJ). A compound mediated exon-inclusion event was detected by observing an increase in formation of a new junction with an alternative exon (AJ). Real-time qPCR assays were used to detect these splicing switches and interrogate the potency of various compounds towards different target genes. A high-throughput real time quantitative PCR (RT-qPCR) assay was developed to measure these two isoforms of the mRNA (CJ and AJ) for exemplary genes, such as HTT, SMN2, and MYB, together with a control housekeeping gene, GAPDH or GUSB or PPIA, used for normalization. Briefly, the A673 or K562 cell line was treated with various compounds described herein (e.g., compounds of Formula (I)). After treatment, the levels of the HTT, MYB, or SMN2 mRNA targets were determined from each sample of cell lysate by cDNA synthesis followed by qPCR.
(§2) The A673 cell line was cultured in DMEM with 10% FBS. Cells were diluted with full growth media and plated in a 96-well plate (15,000 cells in 100 ul media per well). The plate was incubated at 37° C. with 5% CO2 for 24 hours to allow cells to adhere. An 11-point 3-fold serial dilution of the compounds was made in DMSO then diluted in media in an intermediate plate. Compounds were transferred from the intermediate plate to the cell plate with the top dose at a final concentration of 10 uM in the well. Final DMSO concentration was kept at or below 0.25%. The cell plate was returned to the incubator at 37° C. with 5% CO2 for an additional 24 hours.
(§3) The K562 cell line was cultured in IMDM with 10% FBS. For K562, cells were diluted with full growth media and plated in either a 96-well plate (50,000 cells in 50 uL media per well) or a 384-well plate (8,000-40,000 cells in 45 uL media per well). An 11-point 3-fold serial dilution of the compounds were made in DMSO then diluted in media in an intermediate plate. Compound was transferred from the intermediate plate to the cell plate with the top dose at a final concentration of 10 uM in the well. Final DMSO concentration was kept at or below 0.25%. Final volume was 100 uL for 96-well plate and 50 uL for 384-well plate. The cell plate was then placed in an incubator at 37° C. with 5% CO2 for 24 hours.
(§4) The cells were then gently washed with 50 uL-100 uL cold PBS before proceeding to addition of lysis buffer. 30 uL-50 μL of room temperature lysis buffer with DNAse I (and optionally RNAsin) was added to each well. Cells were shaken/mixed thoroughly at room temperature for 5-10 minutes for lysis to take place and then 3 uL-5 μL of room temperature stop solution was added and wells were shaken/mixed again. After 2-5 minutes, the cell lysate plate was transferred to ice for RT-qPCR reaction setup. The lysates could also be frozen at −80° C. for later use.
(§5) In some cases, a direct lysis buffer was used. An appropriate volume of 3× lysis buffer (10 mM Tris, 150 mM NaCl, 1.5%-2.5% Igepal and 0.1-1 U/uL RNAsin, pH 7.4) was directly added to either K562 or A673 cells in media and mixed by pipetting 3 times. The plates were then incubated at room temperature with shaking/rocking for 20-50 minutes to allow for lysis to take place. After this time, the cell lysate plate was transferred to ice to set up for the RT-qPCR reactions. The lysates could also be frozen at −80° C. for later use.
(§6) To set up 10 uL RT-qPCR reactions, cell lysates were transferred to 384-well qPCR plates containing the master mix according to the table below. The plates were sealed, gently vortexed, and spun down before the run. The volumes were adjusted accordingly in some instances where the reaction was carried in 20 μL. The table below summarizes the components of the RT-qPCR reactions:
(§7) The RT-qPCR reaction was performed using a QuantStudio (ThermoFisher) under the following fast cycling conditions. […]

HTT [2] = test: HiBiT protein abundance assay, HTT; conditions: Table 13A, modified K562 cells
Method: (§8) Compounds described herein were used to screen for effects on quantitative protein abundance using a HiBit assay system (Promega). Quantitative protein abundance was determined by measuring the protein levels of HiBit-tagged protein targets expressed in cell culture via luminescence using the Nano-Glo HiBiT Lytic Detection System, which uses a split complementation assay format to reconstitute NanoBiT enzyme to generate a luminescent signal. A protein abundance assay was developed such that endogenous protein targets could be modified with the HiBiT peptide tag and their abundance could be assessed after compound treatment. Briefly, K562 cell lines containing a HiBiT-modification were treated with various compounds described herein (e.g., compounds of Formulas (I), (II), or (III)). After treatment for 24 hours, the protein abundance of a specific target was determined by measuring luminescence.
(§9) Cells were maintained in IMIDM with 10% FBS. Before the assay, cells were diluted with […] growth media (IMIDM+[…] media) and were seeded in a 384-well plate at a density of 10000 cells/well (for each cell line listed in Table 12). Each compound was prepared as a 10-point 3-fold serial dilution in DMSO with the top dose at a final concentration of 10 μM in the well. Unmodified K562 cells were added at the previously specified density with DMSO to serve as an assay baseline and positive control (PC) and DMSO only with the respective modified cell lines was added to the negative control (NC) columns. Final DMSO concentration was kept at or below 0.25%. Treated cell plates were placed in an incubator at 37° C. with 5% CO2 for 24 hours. After 24 hours, 25 μL of Complete HiBit Lytic reagent was added to each well at room temperature (e.g. one plate requiring 10 mL Lytic Buffer, 100 μL LgBiT Protein, 200 μL Lytic Substrate), shaken for 5 minutes at 600 RPM, then left to sit for 10 minutes for signal to stabilize before reading on a Spark Cyto plate reader (Tecan) with a 500 ms measurement time.
(§10) To determine compound effects on protein abundance of each target in Table 12, the percent response for each respective cell line was calculated at each compound concentration as follows:
(§11) For the normalized response at each concentration, a four-parameter logistical regression was fit to the data and the response was interpolated at the 50% value to determine a concentration for protein abundance at 50% (IC50) the untreated control.

HTT [3] = test: Splicing RT-qPCR assay, HTT mRNA canonical junction (CJ) and alternative junction (AJ); conditions: for AC50: increase in AJ mRNA
Method: as §1, §2, §3, §4, §5, §6, §7

MYB [4] = test: HiBiT protein abundance assay, MYB; conditions: Table 13A, modified K562 cells
Method: as §8, §9, §10, §11

MYB [5] = test: Splicing RT-qPCR assay, MYB mRNA canonical junction (CJ) and alternative junction (AJ); conditions: for AC50: increase in AJ mRNA
Method: as §1, §2, §3, §4, §5, §6, §7

SMN2 = test: Splicing RT-qPCR panel, SMN2 canonical junction (CJ) mRNA; conditions: read-out: SMN2 IC50 (decrease in CJ mRNA levels)
Method: as §1, §2, §3, §4, §5, §6, §7

Target C [6] = test: HiBiT protein abundance assay, Target C; conditions: Homo sapiens, K562, 24 h, Table 13A, modified K562 cells
Method: • Promega Nano-Glo HiBiT Lytic Detection System (cat #N3030) • Coming 384-well TC-treated microplates (cat #3570) • Synthego Engineered Cells Knock-In Clones
as §9, §10, §11

[7] = Homo sapiens, RT-qPCR panel, canonical junction mRNA, compound concentration having 50% response in CJ decrease
[8] = Homo sapiens, 24 h, decrease in CJ mRNA, A673 or K562 cells, 24 hours treatment, RT-qPCR, read-out: HTT CJ IC50
[9] = Homo sapiens, 24 h, A673 or K562 cells, 24 hours treatment, RT-qPCR
[10] = Homo sapiens, RT-qPCR panel, canonical junction mRNA, compound concentration having 50% response in CJ decrease, read-out: HTT IC50 (decrease in CJ mRNA levels)
[11] = Homo sapiens, 24 h, decrease in CJ mRNA, A673 or K562 cells, 24 hours treatment, RT-qPCR, read-out: MYB CJ IC50
[12] = Homo sapiens, RT-qPCR panel, canonical junction mRNA, compound concentration having 50% response in CJ decrease, read-out: MYB IC50 (decrease in CJ mRNA levels)
[13] = RT-qPCR panel, canonical junction mRNA, compound concentration having 50% response in CJ decrease
[14] = Homo sapiens, gene panel, CJ qPCR, protocol of Example 142

Structure (SMILES)	IC50 (Target C [1]; [7])	IC50 (HTT [2]; Homo sapiens, K562, 24 h)	IC50 (HTT [3]; [8])	AC50 (HTT [3]; [9])	IC50 (HTT [3]; [10])	IC50 (MYB [4]; Homo sapiens, K562, 24 h)	IC50 (MYB [5]; [11])	AC50 (MYB [5]; [9])	IC50 (MYB [5]; [12])	IC50 (SMN2; [7])	IC50 (Target C [6])	also measured
Cc1cc(-c2ccc(-c3ccc(O[C@H]4C[C@@H]5CC(F)(F)[C@H](C4)N5)nn3)c3[nH]ncc23)ccn1 (single isomer, unassigned) [Compound 370]	1 to 10 µM	1 to 10 µM	> 10 µM	> 10 µM	> 10 µM	1 to 10 µM	> 10 µM	> 10 µM	> 10 µM	1 to 10 µM	> 10 µM	
FC1(F)C[C@@H]2C[C@@H](Oc3ccc(-c4ccc(-c5cn[nH]c5)c5cn[nH]c45)nn3)C[C@H]1N2 (stereo in doubt) [Compound 373, 7-[6-({6,6-difluoro-8-azabicyclo[3.2.1]octan-3-yl}oxy)pyridazin-3-yl]-4-(1H-pyrazol-4-yl)-1H-indazole]	1 to 10 µM	0.1 to 1 µM	0.1 to 1 µM	0.1 to 1 µM	0.1 to 1 µM	1 to 10 µM	1 to 10 µM	0.1 to 1 µM	1 to 10 µM	0.1 to 1 µM	1 to 10 µM	
CN(c1ccc(-c2ccc(-c3cn[nH]c3)c3cn[nH]c23)nn1)[C@@H]1C[C@H]2CC(F)(F)[C@@H](C1)N2 (stereo in doubt) [Compound 376, 6,6-difluoro-N-methyl-N-{6-[4-(1H-pyrazol-4-yl)-1H-indazol-7-yl]pyridazin-3-yl}-8-azabicyclo[3.2.1]octan-3-amine]	0.1 to 1 µM	0.1 to 1 µM		0.1 to 1 µM	< 0.1 µM	0.1 to 1 µM	0.1 to 1 µM	0.1 to 1 µM	0.1 to 1 µM	< 0.1 µM	0.1 to 1 µM	
c1n[nH]cc1-c1ccc(-c2ccc(O[C@@H]3C[C@H]4CC[C@@H](C3)N4)nn2)c2[nH]ncc12 [Compound 142]	0.1 to 1 µM	< 0.1 µM	0.1 to 1 µM	0.1 to 1 µM	0.1 to 1 µM	< 0.1 µM	0.1 to 1 µM	0.1 to 1 µM	0.1 to 1 µM	< 0.1 µM	< 0.1 µM	
CN(c1ccc(-c2ccc(-c3cn[nH]c3)c3cn[nH]c23)nn1)[C@H]1C[C@]2(C)CC[C@](C)(C1)N2 [Compound 146]	< 0.1 µM	< 0.1 µM		< 0.1 µM	< 0.1 µM	< 0.1 µM	0.1 to 1 µM	0.1 to 1 µM	0.1 to 1 µM	< 0.1 µM	< 0.1 µM	
CN(c1ccc(-c2ccc(-n3cccn3)c3nc[nH]c23)nn1)[C@@H]1C[C@H]2CC[C@@H](C1)N2 [Compound 170]	> 10 µM	1 to 10 µM	1 to 10 µM	1 to 10 µM	1 to 10 µM	1 to 10 µM	1 to 10 µM	1 to 10 µM	1 to 10 µM	0.1 to 1 µM	> 10 µM	
CN(c1ccc(-c2ccc(-c3ccn(C)c(=O)c3)c3scnc23)nn1)C1CC(C)(C)NC(C)(C)C1 [Compound 174]	> 10 µM	0.1 to 1 µM	1 to 10 µM	1 to 10 µM	1 to 10 µM	1 to 10 µM	1 to 10 µM	1 to 10 µM	1 to 10 µM	0.1 to 1 µM	> 10 µM	
c1cnn(-c2ccc(-c3cnc(N4CCNC(C5CC5)C4)nn3)c3cn[nH]c23)c1 (centres unmarked) [Compound 555]												IC50 (Target C [1]; [13]): 0.1 to 1 µM; IC50 (HTT [2]; 24 hours): 0.1 to 1 µM; IC50 (HTT [3]; RT-qPCR panel, canonical junction mRNA, compound concentration having 50% response in CJ decrease, read-out: HTT IC50 (decrease in CJ mRNA levels)): < 0.1 µM; IC50 (MYB [4]; 24 hours): 1 to 10 µM; IC50 (MYB [5]; RT-qPCR panel, canonical junction mRNA, compound concentration having 50% response in CJ decrease, read-out: MYB IC50 (decrease in CJ mRNA levels)): 1 to 10 µM; IC50 (SMN2; [13]): 0.1 to 1 µM
c1cnn(-c2ccc(-c3cnc(O[C@H]4C[C@H]5COC[C@@H](C4)N5)nn3)c3cn[nH]c23)c1 [Compound 585]	> 10 µM				> 10 µM				> 10 µM	> 10 µM		
COc1nc(-c2ccc(OC3CC(C)(C)NC(C)(C)C3)nc2)ccc1-c1cnn(C)c1 [Compound 990]												IC50 (Target C [1]; [14]): > 10 µM; IC50 (HTT [3]; Homo sapiens, gene panel, CJ qPCR, protocol of Example 142, read-out: HTT IC50 (decrease in CJ mRNA levels)): > 10 µM; IC50 (MYB [5]; Homo sapiens, gene panel, CJ qPCR, protocol of Example 142, read-out: MYB IC50 (decrease in CJ mRNA levels)): > 10 µM; IC50 (SMN2; [14]): 1 to 10 µM

From US20240368163A1, “COMPOUNDS AND METHODS FOR MODULATING SPLICING” (REMIX THERAPEUTICS INC., priority 2021, published 2024)
